What all share (format): cell-based
One assay deals with T1, BCR-Abl T315I (Homo sapiens, UniProt P00519, T315I).
T1 construct: BCR (N-terminal fusion partner of BCR-ABL); human BCR would be P11274; expressed in transfected cells; host or cells: Ba/F3 (or 32D) murine hematopoietic cells transfected with BCR-ABL T315I in pCI-neo; the other entry of the earlier key: BCR (P11274, Breakpoint cluster region protein)
Description: IC50 of compounds against kinase target T315I (Table I). Conditions: read-out: IC50 T3151. How it is done: (§1) All compounds are initially dissolved in DMSO to make 10 mM stock solutions, and then are serially diluted to obtain final concentrations for in vitro experiments.
(§2) Ba/F3.p210 cells are obtained by transfecting the IL-3-dependent marine hematopoietic Ba/F3 cell line with a pGD vector containing p210BCR-ABL (B2A2) cDNA (Daley and Baltimore, 1988; Sattler et al., 1996; Okuda et al., 1996). Murine hematopoietic 32D cells are transduced with retrovirus to express p210 Bcr-ABL (32D.p210 cells) (Matulonis et al., 1993); the 32D-T315I cell line is transfected by electroporation with the imatinib resistant BCR-ABL construct (pCI-neo Mammalian Expression Vector; Promega (#E1841) harboring the point mutation T315I (Weisberg et al., 2005). Ba/F3 cells are stably transfected by electroporation with imatinib-resistant BCR-ABL constructs (pCI-neo Mammalian Expression Vector; Promega (#E1841) harboring the point mutations T315I, F317L, F486S, and M351T; transfectants are selected for neomycin resistance and IL-3-independent growth (Weisberg et al., 2005). Ba/F3 cells are stably transfected by electroporation with BCR-ABL point mutants identified in a random mutagenesis screen for BCR-ABL point mutants conferring resistance to nilotinib: Q252H, E292K, Y253C, Y253H, E255K, and V289L (Ray et al., 2007). Ba/F3 cells are made to express Tel-PDGFRβ as described by Golub et al., 1994, and Carroll et al., 1996. Constructs of D842V-PDGFRα and V561D-PDGFRα cDNA cloned into pcDNA3.1 are stably transfected into Ba/F3 cells by electroporation, and cells are selected for neomycin resistance and IL3-independent growth as described by Weisberg et al., 2006.
(§3) All cell lines are cultured with 5% CO2 at 37° C. in RPMI (Mediatech, Inc., Herndon, Va.) with 10% fetal calf serum (FCS) and supplemented with 1% L-glutamine. Parental Ba/F3 cells are similarly cultured with 15% WEHI-conditioned medium as a source of IL-3. Transfected cell lines are cultured in media supplemented with 1 mg/ml G418.

The next assay concerns the target T2, Bcr-Abl (Homo sapiens, UniProt P00519).
T2 construct: BCR (N-terminal fusion partner, p210 form, B2A2 junction); expressed in transfected cells; host or cells: Ba/F3.p210 (or 32D.p210) murine hematopoietic cells; the other entry of the earlier key: BCR (P11274, Breakpoint cluster region protein)
In words: IC50 of compounds against kinase target Bcr-Abl (Table I). On the procedure: as §1, §2, §3

A further assay concerns the target T3, EML4-Alk (Homo sapiens, UniProt Q9UM73).
T3 construct: EML4 (N-terminal fusion partner); human EML4 would be Q9HC35; the other entry of the earlier key: EML4 (Q9HC35, Echinoderm microtubule-associated protein-like 4)
Description: IC50 of compounds against kinase target EML4-Alk (Table I). How it is done: as §1, §3

The target in another assay is T4, Tel-Alk (Homo sapiens, UniProt Q9UM73).
T4 construct: TEL (ETV6); N-terminal fusion partner; human ETV6 would be P41212; the other entry of the earlier key: ETV6 (P41212, Transcription factor ETV6)
T4 sequence (Q9UM73 1116-1392 limits assumed): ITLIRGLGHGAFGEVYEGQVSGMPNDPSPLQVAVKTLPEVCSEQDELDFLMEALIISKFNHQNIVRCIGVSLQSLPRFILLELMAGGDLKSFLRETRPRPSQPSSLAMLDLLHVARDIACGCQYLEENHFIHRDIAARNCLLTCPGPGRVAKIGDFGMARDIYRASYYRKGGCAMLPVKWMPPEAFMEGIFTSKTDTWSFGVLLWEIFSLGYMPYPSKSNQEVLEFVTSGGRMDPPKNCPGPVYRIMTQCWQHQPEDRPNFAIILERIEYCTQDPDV
Description: IC50 of compounds against kinase target Tel-Alk (Table I). How it is done: as §1, §3

Bounds are passed on as bounds.

T3 sequence (Q9UM73 1058-1620 limits assumed): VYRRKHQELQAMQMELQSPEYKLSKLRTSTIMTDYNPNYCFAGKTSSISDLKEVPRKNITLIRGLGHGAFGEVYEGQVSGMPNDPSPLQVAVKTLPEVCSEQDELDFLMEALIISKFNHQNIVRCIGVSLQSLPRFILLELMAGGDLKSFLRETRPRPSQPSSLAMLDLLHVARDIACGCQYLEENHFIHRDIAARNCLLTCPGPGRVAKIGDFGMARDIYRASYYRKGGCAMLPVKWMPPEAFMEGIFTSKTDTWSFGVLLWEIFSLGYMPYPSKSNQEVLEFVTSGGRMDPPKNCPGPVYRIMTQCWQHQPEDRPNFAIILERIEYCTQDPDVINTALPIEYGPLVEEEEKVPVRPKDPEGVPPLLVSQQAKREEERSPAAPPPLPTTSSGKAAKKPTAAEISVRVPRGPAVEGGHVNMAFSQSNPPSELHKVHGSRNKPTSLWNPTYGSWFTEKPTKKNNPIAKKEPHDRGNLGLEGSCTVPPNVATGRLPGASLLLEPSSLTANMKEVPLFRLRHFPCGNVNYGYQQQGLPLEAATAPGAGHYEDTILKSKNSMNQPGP

Take `O=C(NC1CC1)c1cccc(-c2ccc3c(NC(=O)C4CC4)n[nH]c3c2)c1` [Compound 10]: the 50% inhibitory concentration (IC50) at BCR-Abl T315I, against Bcr-Abl, against EML4-Alk and against Tel-Alk was > 10000 nM throughout.
Regarding `CCN1CCN(Cc2ccc(NC(=O)c3ccc(C)c(-c4ccc5c(NC(=O)C6CC6)n[nH]c5c4)c3)cc2)CC1` [Compound 14], the IC50 (usually the concentration that inhibits the measured activity by half) was > 10000 nM on BCR-Abl T315I, 1050 nM on Bcr-Abl, 5600 nM on EML4-Alk and 1440 nM against Tel-Alk.
On to `COc1cc(Nc2ccc3c(NC(=O)C4CC4)n[nH]c3c2)cc(C(=O)Nc2ccc(CN3CCN(C)CC3)c(C(F)(F)F)c2)c1` [Compound 26], for which the concentration for half-maximal inhibition (IC50) on Bcr-Abl is 7080 nM; at EML4-Alk it was > 10000 nM; at Tel-Alk, 7080 nM.
As to `CCOC(=O)c1cccc(-c2ccc3c(NC(=O)c4ccc(N5CCN(C)CC5)cc4)n[nH]c3c2)c1` [Compound 27], the half-inhibitory concentration (IC50) at BCR-Abl T315I was determined as 1560 nM; on Bcr-Abl, 70 nM; against EML4-Alk, 4220 nM; on Tel-Alk, 5260 nM.
On to `CNc1n[nH]c2cc(-c3cccc(C(=O)Nc4cc(-n5cnc(C)c5)cc(C(F)(F)F)c4)c3)ccc12` [Compound 18], for which the 50% inhibitory concentration (IC50) is 3080 nM at BCR-Abl T315I, 1570 nM against Bcr-Abl, > 10000 nM against EML4-Alk and > 10000 nM against Tel-Alk.
Take `CCN1CCN(Cc2ccc(NC(=O)c3cccc(-c4ccc5c(NC(=O)C6CC6)n[nH]c5c4)c3)cc2C(F)(F)F)CC1` [Compound 19]: the IC50 was 340 nM at BCR-Abl T315I, 650 nM against Bcr-Abl, 60 nM on EML4-Alk and 30 nM against Tel-Alk.
Take `CCN1CCN(Cc2ccc(NC(=O)c3cccc(-c4ccc5c(NC(=O)C6CC6)n[nH]c5c4)c3)cc2)CC1` [Compound 9]: the half-inhibitory concentration (IC50) on BCR-Abl T315I, against Bcr-Abl, against EML4-Alk and on Tel-Alk was > 10000 nM in each case.
In the case of `CCN1CCN(Cc2ccc(NC(=O)c3cccc(-c4ccc5c(N)n[nH]c5c4)c3)cc2C(F)(F)F)CC1` [Compound 17], the IC50 was 7120 nM on BCR-Abl T315I, 780 nM against Bcr-Abl, > 10000 nM against EML4-Alk and > 10000 nM against Tel-Alk.
For the molecule `CCN1CCN(Cc2ccc(C(=O)Nc3cccc(-c4ccc5c(N)n[nH]c5c4)c3)cc2C(F)(F)F)CC1` [Compound 20], the half-inhibitory concentration (IC50) at BCR-Abl T315I worked out at 310 nM; at Bcr-Abl, 90 nM; on EML4-Alk, 400 nM; at Tel-Alk, 270 nM.
Take `CCN1CCN(Cc2ccc(NC(=O)c3cccc(-c4ccc5c(NC(=O)c6ccccc6)n[nH]c5c4)c3)cc2C(F)(F)F)CC1` [Compound 3]: the IC50 is 470 nM against Bcr-Abl, 1670 nM on EML4-Alk and 1070 nM on Tel-Alk.
As to `Cc1ccc(C(=O)Nc2cccc(C(F)(F)F)c2)cc1-c1ccc2c(NC(=O)C3CC3)n[nH]c2c1` [Compound 15], the half-inhibitory concentration (IC50) on BCR-Abl T315I was > 10000 nM; on Bcr-Abl it was 1190 nM; against EML4-Alk, 8470 nM; against Tel-Alk, 1290 nM.
Turning to `O=C(Nc1cccc(C(F)(F)F)c1)c1cccc(-c2ccc3c(NC(=O)C4CC4)n[nH]c3c2)c1` [Compound 1], the 50% inhibitory concentration (IC50) against Bcr-Abl, on EML4-Alk and against Tel-Alk was > 10000 nM in each case.
For the molecule `CN1CCN(c2ccc(C(=O)Nc3n[nH]c4cc(-c5cccc(C(=O)Nc6cccc(C(F)(F)F)c6)c5)ccc34)cc2)CC1` [Compound 28, 3-(3-(4-(4-methylpiperazin-1-yl)benzamido)-1H-indazol-6-yl)-N-(3-(trifluoromethyl)phenyl)benzamide], the IC50 was > 10000 nM on BCR-Abl T315I, 1440 nM against Bcr-Abl, > 10000 nM on EML4-Alk and > 10000 nM at Tel-Alk.
Take `Cc1ccc(C(=O)Nc2cccc(C(F)(F)F)c2)cc1Nc1ccc2c(NC(=O)C3CC3)n[nH]c2c1` [Compound 25, 3-(3-(cyclopropanecarboxamido)-1H-indazol-6-ylamino)-4-methyl-N-(3-(trifluoro-methyl)phenyl)benzamide]: the 50% inhibitory concentration (IC50) on BCR-Abl T315I was > 10000 nM; at Bcr-Abl it was 7180 nM; against EML4-Alk, > 10000 nM; against Tel-Alk, 7180 nM.
Consider `CCN1CCN(Cc2ccc(NC(=O)Nc3cccc(-c4ccc5c(NC(=O)C6CC6)n[nH]c5c4)c3)cc2C(F)(F)F)CC1` [Compound 21], for which the IC50 at BCR-Abl T315I was determined as 240 nM; against Bcr-Abl, 530 nM; at EML4-Alk it was 360 nM; against Tel-Alk, 320 nM.
`O=C(Nc1n[nH]c2cc(-c3cccc(C(=O)N4CCC(N5CCCC5)CC4)c3)ccc12)C1CC1` [Compound 8]: the half-inhibitory concentration (IC50) at BCR-Abl T315I, against Bcr-Abl, against EML4-Alk and against Tel-Alk was > 10000 nM in each case.
Turning to `CCN1CCN(Cc2ccc(C(=O)Nc3cccc(-c4ccc5c(NC(=O)C6CC6)n[nH]c5c4)c3)cc2C(F)(F)F)CC1` [Compound 23], the IC50 at BCR-Abl T315I, against Bcr-Abl, against EML4-Alk and against Tel-Alk was > 10000 nM each time.
`Cc1cn(-c2cc(NC(=O)c3cccc(-c4ccc5c(NC(=O)C6CC6)n[nH]c5c4)c3)cc(C(F)(F)F)c2)cn1` [Compound 6]: the IC50 on BCR-Abl T315I stood at 310 nM; on Bcr-Abl it was 3070 nM; on EML4-Alk it was 1340 nM; against Tel-Alk it was 2900 nM.
With `CNC(=O)c1cccc(-c2ccc3c(NC(=O)C4CC4)n[nH]c3c2)c1` [Compound 12], the IC50 at BCR-Abl T315I was determined as 2080 nM; at Bcr-Abl it was 1900 nM; on EML4-Alk it was 1050 nM; against Tel-Alk it was 720 nM.
As for `CCN1CCN(Cc2ccc(NC(=O)c3cccc(-c4ccc5c(NC)n[nH]c5c4)c3)cc2C(F)(F)F)CC1` [Compound 2, N-(4-((4-ethylpiperazin-1-yl)methyl)-3-(trifluoromethyl)phenyl)-3-(3-(methylamino)-1H-indazol-6-yl)benzamide], the concentration for half-maximal inhibition (IC50) was 630 nM at BCR-Abl T315I, 50 nM against Bcr-Abl, 4190 nM against EML4-Alk and 4480 nM against Tel-Alk.
Regarding `CCN1CCN(Cc2ccc(NC(=O)c3cccc(Nc4ccc5c(NC(=O)C6CC6)n[nH]c5c4)c3)cc2C(F)(F)F)CC1` [Compound 24], the half-inhibitory concentration (IC50) came to 3110 nM on BCR-Abl T315I, 2380 nM at Bcr-Abl, 2530 nM against EML4-Alk and 3750 nM at Tel-Alk.
Regarding `Cc1cn(-c2cc(NC(=O)c3ccc(C)c(-c4ccc5c(NC(=O)C6CC6)n[nH]c5c4)c3)cc(C(F)(F)F)c2)cn1` [Compound 16], the half-inhibitory concentration (IC50) at BCR-Abl T315I is > 10000 nM; at Bcr-Abl, 220 nM; on EML4-Alk, > 10000 nM; against Tel-Alk it was > 10000 nM.
Consider `O=C(NCCN1CCOCC1)c1cccc(-c2ccc3c(NC(=O)C4CC4)n[nH]c3c2)c1` [Compound 7], for which the half-inhibitory concentration (IC50) on BCR-Abl T315I, against Bcr-Abl, on EML4-Alk and against Tel-Alk was > 10000 nM in each case.
Turning to `O=C(Nc1cccc(-c2ccc3c(NC(=O)C4CC4)n[nH]c3c2)c1)C1CC1` [Compound 22], the IC50 on BCR-Abl T315I turned out to be 1270 nM; on Bcr-Abl, 360 nM; on EML4-Alk, 500 nM; at Tel-Alk, 430 nM.
`CCN1CCN(Cc2ccc(NC(=O)c3ccc(C)c(-c4ccc5c(NC(=O)C6CC6)n[nH]c5c4)c3)cc2C(F)(F)F)CC1` [Compound 13]: the IC50 at BCR-Abl T315I is 500 nM; on Bcr-Abl, 30 nM; against EML4-Alk, 1060 nM; at Tel-Alk it was 310 nM.
In the case of `CONC(=O)c1cccc(-c2ccc3c(NC(=O)C4CC4)n[nH]c3c2)c1` [Compound 11], the half-maximal inhibitory concentration (IC50) at BCR-Abl T315I, at Bcr-Abl, on EML4-Alk and on Tel-Alk was > 10000 nM each time.

The values above are taken from patent publication US8987275B2, “Indazole compounds and their uses” (Dana-Farber Cancer Institute, Inc., priority 2010, dated 2015).
